Experimental data taken from US4175125A, “Method for treating methicillin resistant staphylococcus aureus” (Eli Lilly and Company, priority 1978, dated 1979).
≈ marks a conversion by molar mass, not a printed value.

Tests used:
[1] = system: Staphylococcus aureus cultures; assay: Agar dilution susceptibility test, phenylthioacetyl cephalosporins vs methicillin resistant S. aureus (Example 9); assay type: cell-based; details: for MIC: Staphylococcus aureus, read-out: MIC
Description: This example compares the antibiotic activities of three known compounds, methicillin, cephalothin, and cephaloridine, with three compounds from the above examples, in terms of minimum inhibitory concentration (MIC) values in microgram/milliliter units against various isolates of Staphylococcus aureus cultures. The culture numbers and the procedures used to obtain the reported data are disclosed by W. E. Wick and D. A. Preston in their article "Heterogeneous Methicillin-Resistant Staphylococcus Aureus" which appeared in Progress in Antimicrobial And Anticancer Chemotherapy, Proceedings of the 6th International Congress of Chemotherapy, Volume, 1, U. of Tokyo Press, Tokyo, (1970). In these agardilution susceptibility tests, the inocula were diluted to 10^3 bacteria per spot. Cultures 3055 (benzylpenicillin sensitive) and H232 (benzylpenicillin-resistant) are controls. The remaining cultures are methicillin-resistant, and, except for 3136, are clinical isolates. Culture 3136 is a 4th transfer laboratory selected mutant.

[2] = system: Staphylococcus aureus cultures; assay: Broth dilution MIC in trypticase soy broth, low and high NaCl (Example 10); assay type: cell-based; details: Staphylococcus aureus, TSB, read-out: MIC
Method: This example compares the antibiotic activities of methicillin, cephalothin and cephaloridine with the compounds of Examples 1, 2 and 3, in broth dilution tests. The MIC values, in μg/ml., are against the same Staphylococcus aureus cultures described in Example 9, except that in this example the cultures were grown in trypticase soy broth (TSB). Growing the cultures in two broth cultures, one having a low (0.5 percent) sodium chloride content and one having a high (5.0 percent) sodium chloride content is said to assist in identifying the methicillin-resistant cultures from those which are not methicillin-resistant. […] See Chabbert, Y. A., 1967 Postgrad. Med. J., 43 (suppl); 40-46. One expects that similar changes in MIC values for this type of culture to other β-lactam antibiotics, e.g., various penicillins and cephalosporins, to have similar implications. […] That is, methicillin-resistant S.aureus cultures are susceptible to the cephalosporin antibiotics used in this invention.

[3] = culture 3130, table part marked b
[4] = culture 3130, table part marked c
[5] = culture 3131, table part marked b
[6] = culture 3131, table part marked c
[7] = culture 3134, table part marked b
[8] = culture 3134, table part marked c
[9] = culture 3135, table part marked b
[10] = culture 3135, table part marked c
[11] = culture 3136, table part marked b
[12] = culture 3136, table part marked c
[13] = culture 3137, table part marked b
[14] = culture 3137, table part marked c
[15] = culture 3138, table part marked b
[16] = culture 3138, table part marked c
[17] = culture 3139, table part marked b
[18] = culture 3139, table part marked c
[19] = culture (Seattle) 966, table part marked b
[20] = culture (Seattle) 966, table part marked c
[21] = culture S61, table part marked b
[22] = culture S61, table part marked c

CC(=O)OCC1=C(C(=O)O)N2C(=O)C(NC(=O)CSc3ccc(Cl)c(Cl)c3)C2SC1 (stereo not drawn) [Example 1, 7-(3,4-dichlorophenylthioacetamido)cephalosporanic acid]
MIC ([1]; culture 3055 (control, benzylpenicillin sensitive), table part marked b): < 0.06 µg/mL
MIC ([1]; culture 3055 (control, benzylpenicillin sensitive), table part marked c): < 0.06 µg/mL
MIC [1, 3]: 0.5 µg/mL (≈ 1.02 µM)
MIC [1, 4]: 1 µg/mL (≈ 2.04 µM)
MIC [1, 5]: 1 µg/mL (≈ 2.04 µM)
MIC [1, 6]: 1 µg/mL (≈ 2.04 µM)
MIC ([1]; culture 3132, table part marked b): 0.5 µg/mL (≈ 1.02 µM)
MIC ([1]; culture 3132, table part marked c): 0.25 µg/mL (≈ 0.509 µM)
MIC ([1]; culture 3133, table part marked b): 0.5 µg/mL (≈ 1.02 µM)
MIC ([1]; culture 3133, table part marked c): 1 µg/mL (≈ 2.04 µM)
MIC [1, 7]: 1 µg/mL (≈ 2.04 µM)
MIC [1, 8]: 0.5 µg/mL (≈ 1.02 µM)
MIC [1, 9]: 0.5 µg/mL (≈ 1.02 µM)
MIC [1, 10]: 0.25 µg/mL (≈ 0.509 µM)
MIC [1, 11]: 0.5 µg/mL (≈ 1.02 µM)
MIC [1, 12]: 0.5 µg/mL (≈ 1.02 µM)
MIC [1, 13]: 2 µg/mL (≈ 4.07 µM)
MIC [1, 14]: 2 µg/mL (≈ 4.07 µM)
MIC [1, 15]: 1 µg/mL (≈ 2.04 µM)
MIC [1, 16]: 0.5 µg/mL (≈ 1.02 µM)
MIC [1, 17]: 1 µg/mL (≈ 2.04 µM)
MIC [1, 18]: 0.25 µg/mL (≈ 0.509 µM)
MIC [1, 19]: 0.5 µg/mL (≈ 1.02 µM)
MIC [1, 20]: 0.25 µg/mL (≈ 0.509 µM)
MIC ([1]; culture H232 (control, benzylpenicillin-resistant), table part marked b): < 0.06 µg/mL
MIC ([1]; culture H232 (control, benzylpenicillin-resistant), table part marked c): < 0.06 µg/mL
MIC ([1]; culture Kavarmark 1138501, table part marked b): 0.5 µg/mL (≈ 1.02 µM)
MIC ([1]; culture Kavarmark 1138501, table part marked c): 0.5 µg/mL (≈ 1.02 µM)
MIC [1, 21]: 0.5 µg/mL (≈ 1.02 µM)
MIC [1, 22]: 1 µg/mL (≈ 2.04 µM)
effectiveness in in vitro tests vs methicillin, cephalothin and cephaloridine ([1]; various cultures of methicillin-resistant Staphylococcus aureus): substantially more effective than methicillin, cephalothin, and cephaloridine
MIC ([2]; culture 3055 (control), table part marked b): 0.06 µg/mL (≈ 0.122 µM)
MIC ([2]; culture 3055 (control), table part marked c): 0.06 µg/mL (≈ 0.122 µM)
MIC [2, 3]: 0.5 µg/mL (≈ 1.02 µM)
MIC [2, 4]: 4 µg/mL (≈ 8.14 µM)
MIC [2, 5]: 1 µg/mL (≈ 2.04 µM)
MIC [2, 6]: 2 µg/mL (≈ 4.07 µM)
MIC ([2]; culture 3132 (first column so headed), table part marked b): < 0.5 µg/mL
MIC ([2]; culture 3132 (first column so headed), table part marked c): 2 µg/mL (≈ 4.07 µM)
MIC ([2]; culture 3132 (second column so headed), table part marked b): < 0.5 µg/mL
MIC ([2]; culture 3132 (second column so headed), table part marked c): 2 µg/mL (≈ 4.07 µM)
MIC [2, 7]: 1 µg/mL (≈ 2.04 µM)
MIC [2, 8]: 4 µg/mL (≈ 8.14 µM)
MIC [2, 9]: < 0.5 µg/mL
MIC [2, 10]: 2 µg/mL (≈ 4.07 µM)
MIC [2, 11]: 0.5 µg/mL (≈ 1.02 µM)
MIC [2, 12]: 2 µg/mL (≈ 4.07 µM)
MIC [2, 13]: 2 µg/mL (≈ 4.07 µM)
MIC [2, 14]: 4 µg/mL (≈ 8.14 µM)
MIC [2, 15]: 1 µg/mL (≈ 2.04 µM)
MIC [2, 16]: 1 µg/mL (≈ 2.04 µM)
MIC [2, 17]: 1 µg/mL (≈ 2.04 µM)
MIC [2, 18]: 1 µg/mL (≈ 2.04 µM)
MIC [2, 19]: 0.5 µg/mL (≈ 1.02 µM)
MIC [2, 20]: 2 µg/mL (≈ 4.07 µM)
MIC ([2]; culture H232 (control), table part marked b): 0.12 µg/mL (≈ 0.244 µM)
MIC ([2]; culture H232 (control), table part marked c): 0.25 µg/mL (≈ 0.509 µM)
MIC ([2]; culture Kavarnick 1138501, table part marked b): 0.5 µg/mL (≈ 1.02 µM)
MIC ([2]; culture Kavarnick 1138501, table part marked c): 2 µg/mL (≈ 4.07 µM)
MIC [2, 21]: 2 µg/mL (≈ 4.07 µM)
MIC [2, 22]: 2 µg/mL (≈ 4.07 µM)
MIC ([2]; culture S, table part marked b): 2 µg/mL (≈ 4.07 µM)
MIC ([2]; culture S, table part marked c): 2 µg/mL (≈ 4.07 µM)
